Reference: article PMC4032265 (PLoS ONE, 2014)

Experiments:
[1] = target: 5HT2B serotonergic receptor (Homo sapiens, UniProt P41595); test: PDSP radioligand binding, 5HT2B; settings: full concentration-response curves, n = 3-6 unless noted
[2] = target: T1, 5HT2C serotonergic receptor (Homo sapiens, UniProt P28335); test: PDSP radioligand binding, 5HT2C; settings: full concentration-response curves, n = 3-6 unless noted
T1 sequence (P28335 33-458): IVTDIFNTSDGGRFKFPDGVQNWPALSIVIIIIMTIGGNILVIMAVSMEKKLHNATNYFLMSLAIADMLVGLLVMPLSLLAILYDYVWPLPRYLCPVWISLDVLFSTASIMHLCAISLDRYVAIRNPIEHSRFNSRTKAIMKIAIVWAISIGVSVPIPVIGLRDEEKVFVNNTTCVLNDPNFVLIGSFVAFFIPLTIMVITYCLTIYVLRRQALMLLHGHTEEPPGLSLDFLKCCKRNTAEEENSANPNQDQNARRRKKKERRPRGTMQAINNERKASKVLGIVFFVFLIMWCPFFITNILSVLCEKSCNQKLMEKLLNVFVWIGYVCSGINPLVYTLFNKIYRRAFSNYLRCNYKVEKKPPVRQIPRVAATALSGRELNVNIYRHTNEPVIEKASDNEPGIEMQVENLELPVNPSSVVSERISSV

[3] = test system: 41 diverse receptors, channels and a transporter; test: PDSP broad screen: summary of off-target interactions; settings: besides 5HT2B and 5HT2C
sigma (σ) receptors = settings: cited from earlier work
[4] = test system: peripheral cholecystokinin receptors; settings: cited from earlier work

Chain of 5HT2B serotonergic receptor (P41595 whole entry): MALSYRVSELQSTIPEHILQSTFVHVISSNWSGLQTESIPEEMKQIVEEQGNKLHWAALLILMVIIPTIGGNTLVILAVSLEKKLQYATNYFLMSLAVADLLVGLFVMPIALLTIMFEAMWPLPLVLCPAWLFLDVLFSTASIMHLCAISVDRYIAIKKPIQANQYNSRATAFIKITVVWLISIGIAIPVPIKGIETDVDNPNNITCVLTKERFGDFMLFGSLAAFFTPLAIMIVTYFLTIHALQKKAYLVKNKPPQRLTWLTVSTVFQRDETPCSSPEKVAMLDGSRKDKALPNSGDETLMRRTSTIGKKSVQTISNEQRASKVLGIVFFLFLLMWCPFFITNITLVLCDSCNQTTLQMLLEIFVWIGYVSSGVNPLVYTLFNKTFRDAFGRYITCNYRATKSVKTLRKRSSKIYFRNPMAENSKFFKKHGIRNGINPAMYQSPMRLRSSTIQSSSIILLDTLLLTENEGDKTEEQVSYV

In the case of CNC(=O)[C@H]1O[C@@H](n2cnc3c(NCc4cccc(I)c4)ncnc32)[C@H](O)[C@@H]1O [IB-MECA, N ^6-(3-iodobenzyl)-5′-N-methylcarboxamidoadenosine], the Ki [1] is reported as 1.08 µM, the Ki [2] is reported as 5.42 µM and the “other off-target interactions in pharmacological screening” value [3] is reported as “no other off-target interactions”. For the same compound, the “binding inhibition at 10 µM” value (sigma (σ) receptors) was 50–70% and the “binding inhibition at 10 µM” value [4] was 50–70%.
